In this assay the target is T1, Human Factor D (Homo sapiens, UniProt P00746).
T1 construct: purified from human serum; purchased Complement Technology, Inc; host or cells: human serum (natural protein, not recombinant)
Description: Human Factor D Assay. The class given is biochemical. To be noted: Table 3; Human Factor D 80 nM, substrate Z-L-Lys-SBzl; read-out: (IC50 (Stars)). In a few lines: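 Serum-purified factor D (80 nM final) preincubated 5 min at room temperature with compound in 50 mM Tris, 1 M NaCl, pH 7.5. Reaction started with 100 μM Z-L-Lys-SBzl plus 100 μM DTNB; A405 read every 30 s for 30 min; IC50 by nonlinear regression of rates.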

A value given as a limit tells only on which side of the number the result lay.

T1 sequence (P00746 26-253): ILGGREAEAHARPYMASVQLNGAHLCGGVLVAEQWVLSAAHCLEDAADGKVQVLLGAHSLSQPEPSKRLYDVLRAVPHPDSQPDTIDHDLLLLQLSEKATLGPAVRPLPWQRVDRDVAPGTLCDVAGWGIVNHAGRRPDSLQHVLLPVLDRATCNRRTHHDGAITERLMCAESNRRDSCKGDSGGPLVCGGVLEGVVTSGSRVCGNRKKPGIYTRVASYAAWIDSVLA

Take `CC(=O)c1nn(CC(=O)N2[C@@H]3C[C@@H]3C[C@H]2C(=O)Nc2cncc(Br)n2)c2ccc(Oc3ncc(C)cn3)cc12` [Compound 170, (1R,3S,5R)-2-(2-(3-Acetyl-5-((5-methylpyrimidin-2-yl)oxy)-1H-indazol-1-yl)acetyl)-N-(6-bromopyrazin-2-yl)-2-azabicyclo[3.1.0]hexane-3-carboxamide]: the IC50 is less than 1000 nM.

For `CC(=O)c1nn(CC(=O)N2[C@@H]3C[C@@H]3C[C@H]2C(=O)Nc2cccc(Br)n2)c2ccc(Oc3ncc(C)cn3)cc12` [Compound 171, (1R,3S,5R)-2-(2-(3-Acetyl-5-((5-methylpyrimidin-2-yl)oxy)-1H-indazol-1-yl)acetyl)-N-(6-bromopyridin-2-yl)-2-azabicyclo[3.1.0]hexane-3-carboxamide], the IC50 was less than 1000 nM.

Take `CC(=O)c1nn(CC(=O)N2C[C@H](F)C[C@H]2C(=O)Nc2nc(Br)ccc2C)c2ccc(Oc3ncc(C)cn3)cc12` [Compound 172, (2S,4R)-1-(2-(3-Acetyl-5-((5-methylpyrimidin-2-yl)oxy)-1H-indazol-1-yl)acetyl)-N-(6-bromo-3-methylpyridin-2-yl)-4-fluoropyrrolidine-2-carboxamide]: the IC50 is less than 1000 nM.

With `CC(=O)c1nn(CC(=O)N2[C@@H]3C[C@@H]3C[C@H]2C(=O)Nc2nc(Br)ccc2C)c2ccc(Oc3ncc(C)cn3)cc12` [Compound 173, (1R,3S,5R)-2-(2-(3-Acetyl-5-((5-methylpyrimidin-2-yl)oxy)-1H-indazol-1-yl)acetyl)-N-(6-bromo-3-methylpyridin-2-yl)-2-azabicyclo[3.1.0]hexane-3-carboxamide], the IC50 was less than 1000 nM.

As to `COc1cc(Br)nc(NC(=O)[C@@H]2C[C@@H](F)CN2C(=O)Cn2nc(C(C)=O)c3cc(Oc4ncc(C)cn4)ccc32)c1` [Compound 174, (2S,4R)-1-(2-(3-Acetyl-5-((5-methylpyrimidin-2-yl)oxy)-1H-indazol-1-yl)acetyl)-N-(6-bromo-4-methoxypyridin-2-yl)-4-fluoropyrrolidine-2-carboxamide], the IC50 was less than 1000 nM.

Turning to `CC(=O)c1nn(CC(=O)N2C[C@H](F)C[C@H]2C(=O)Nc2cccc(Br)n2)c2ccc(Oc3cnc(C)cn3)cc12` [Compound 175, (2S,4R)-1-(2-(3-Acetyl-5-((5-methylpyrazin-2-yl)oxy)-1H-indazol-1-yl)acetyl)-N-(6-bromopyridin-2-yl)-4-fluoropyrrolidine-2-carboxamide], the IC50 was less than 1000 nM.

For the molecule `CC(=O)c1nn(CC(=O)N2C[C@H](F)C[C@H]2C(=O)Nc2ccc(F)c(Br)n2)c2ccc(Oc3ncc(C)cn3)cc12` [Compound 176, (2S,4R)-1-(2-(3-Acetyl-5-((5-methylpyrimidin-2-yl)oxy)-1H-indazol-1-yl)acetyl)-N-(6-bromo-5-fluoropyridin-2-yl)-4-fluoropyrrolidine-2-carboxamide], the IC50 was less than 1000 nM.

Take `CC(=O)c1nn(CC(=O)N2[C@@H]3C[C@@H]3C[C@H]2C(=O)Nc2ccc(F)c(Br)n2)c2ccc(Oc3ncc(C)cn3)cc12` [Compound 177, (1R,3S,5R)-2-(2-(3-Acetyl-5-((5-methylpyrimidin-2-yl)oxy)-1H-indazol-1-yl)acetyl)-N-(6-bromo-5-fluoropyridin-2-yl)-2-azabicyclo[3.1.0]hexane-3-carboxamide]: the IC50 was less than 1000 nM.

In the case of `CC(=O)c1nn(CC(=O)N2C[C@H](F)C[C@H]2C(=O)Nc2ccc(F)c(Br)n2)c2ccc(Oc3cnc(C)cn3)cc12` [Compound 178, (2S,4R)-1-(2-(3-Acetyl-5-((5-methylpyrazin-2-yl)oxy)-1H-indazol-1-yl)acetyl)-N-(6-bromo-5-fluoropyridin-2-yl)-4-fluoropyrrolidine-2-carboxamide], the IC50 was less than 1000 nM.

Consider `CC(=O)c1nn(CC(=O)N2C[C@H](F)C[C@H]2C(=O)Nc2nc(Br)ccc2C)c2ccc(Oc3cnc(C)cn3)cc12` [Compound 179, (2S,4R)-1-(2-(3-Acetyl-5-((5-methylpyrazin-2-yl)oxy)-1H-indazol-1-yl)acetyl)-N-(6-bromo-3-methylpyridin-2-yl)-4-fluoropyrrolidine-2-carboxamide], for which the IC50 is less than 1000 nM.

For the molecule `CC(=O)c1nn(CC(=O)N2C[C@H](F)C[C@H]2C(=O)Nc2cccc(Br)n2)c2ccc(Oc3cc(C)ncn3)cc12` [Compound 180, (2S,4R)-1-(2-(3-Acetyl-5-((6-methylpyrimidin-4-yl)oxy)-1H-indazol-1-yl)acetyl)-N-(6-bromopyridin-2-yl)-4-fluoropyrrolidine-2-carboxamide], the IC50 was less than 1000 nM.

With `CCOP(=O)(COc1ccc2c(c1)c(C(N)=O)cn2CC(=O)N1[C@@H]2CC[C@@H](C2)[C@H]1C(=O)Nc1cccc(C)n1)OCC` [Compound 182, diethyl (((3-Carbamoyl-1-(2-((1R,3S,4S)-3-((6-methylpyridin-2-yl)carbamoyl)-2-azabicyclo[2.2.1]heptan-2-yl)-2-oxoethyl)-1H-indol-5-yl)oxy)methyl)phosphonate], the IC50 is greater than 10000 nM.

Regarding `Cc1cccc(NC(=O)[C@@H]2[C@H]3CC[C@H](C3)N2C(=O)Cn2cc(C(N)=O)c3cc(OCP(=O)(O)O)ccc32)n1` [Compound 183, (((3-carbamoyl-1-(2-((1R,3S,4S)-3-((6-methylpyridin-2-yl)carbamoyl)-2-azabicyclo[2.2.1]heptan-2-yl)-2-oxoethyl)-1H-indol-5-yl)oxy)methyl)phosphonic acid], the IC50 was greater than 10000 nM.

Turning to `CC(=O)c1nn(CC(=O)N2C[C@H]3C[C@H]3[C@H]2C(=O)Nc2nc(Br)ccc2C2CC2)c2ccc(O[C@@H]3CO[C@H]4[C@@H]3OC[C@H]4O)cc12` [Compound 184, (1R,2S,5S)-3-(2-(3-Acetyl-5-((3R,3aR,6R,6aR)-6-hydroxyhexahydrofuro[3,2-b]furan-3-yloxy)-1H-indazol-1-yl)acetyl)-N-(6-bromo-3-cyclopropylpyridin-2-yl)-3-azabicyclo[3.1.0]hexane-2-carboxamide], the IC50 is less than 1000 nM.

Consider `CC(=O)c1nn(CC(=O)N2C[C@H]3C[C@H]3[C@H]2C(=O)Nc2nc(Br)ccc2C)c2ccc(O[C@@H]3CO[C@H]4[C@@H]3OC[C@H]4O)cc12` [Compound 185, (1R,2S,5S)-3-(2-(3-Acetyl-5-((3R,3aR,6R,6aR)-6-hydroxyhexahydrofuro[3,2-b]furan-3-yloxy)-1H-indazol-1-yl)acetyl)-N-(6-bromo-3-methylpyridin-2-yl)-3-azabicyclo[3.1.0]hexane-2-carboxamide], for which the IC50 was less than 1000 nM.

Consider `Cc1cccc(NC(=O)[C@@H]2[C@H]3CC[C@H](C3)N2C(=O)Cn2cc(C(N)=O)c3cc(OCS(=O)(=O)NC(C)(C)C)ccc32)n1` [Compound 186, 5-((N-(tert-butyl)sulfamoyl)methoxy)-1-(2-((1R,3S,4S)-3-((6-methylpyridin-2-yl)carbamoyl)-2-azabicyclo[2.2.1]heptan-2-yl)-2-oxoethyl)-1H-indole-3-carboxamide], for which the IC50 was greater than 10000 nM.

Regarding `Cc1cccc(NC(=O)[C@@H]2[C@H]3CC[C@H](C3)N2C(=O)Cn2cc(C(N)=O)c3cc(OCS(N)(=O)=O)ccc32)n1` [Compound 187, 1-(2-((1R,3S,4S)-3-((6-Methylpyridin-2-yl)carbamoyl)-2-azabicyclo[2.2.1]heptan-2-yl)-2-oxoethyl)-5-(sulfamoylmethoxy)-1H-indole-3-carboxamide], the IC50 is greater than 10000 nM.

With `CC(=O)c1nn(CC(=O)N2C[C@H](F)C[C@H]2C(=O)Nc2cccc(Br)n2)c2ccc(OC3CCOC3)cc12` (stereo partly drawn) [Compound 193, (2S,4R)-1-(2-(3-acetyl-5-((tetrahydrofuran-3-yl)oxy)-1H-indazol-1-yl)acetyl)-N-(6-bromopyridin-2-yl)-4-fluoropyrrolidine-2-carboxamide], the IC50 is less than 1000 nM.

As to `CC(=O)c1nn(CC(=O)N2C[C@H](F)C[C@H]2C(=O)Nc2cccc(Br)n2)c2ccc(OC3CCCC3)cc12` [Compound 194, (2S,4R)-1-(2-(3-acetyl-5-(cyclopentyloxy)-1H-indazol-1-yl)acetyl)-N-(6-bromopyridin-2-yl)-4-fluoropyrrolidine-2-carboxamide], the IC50 was less than 1000 nM.

Regarding `CC(=O)c1nn(CC(=O)N2C[C@H](F)C[C@H]2C(=O)Nc2cccc(Br)n2)c2ccc(O[C@@H]3CO[C@H]4[C@@H]3OC[C@H]4O)cc12` [Compound 200, (2S,4R)-1-(2-(3-acetyl-5-(((3R,3aR,6R,6aR)-6-hydroxy-hexahydrofuro[3,2-b]furan-3-yl)oxy)-1H-indazol-1-yl)acetyl)-N-(6-bromopyridin-2-yl)-4-fluoropyrrolidine-2-carboxamide], the IC50 is less than 1000 nM.

`CC(=O)c1nn(CC(=O)N2C[C@H](F)C[C@H]2C(=O)Nc2cccc(Br)n2)c2cc(OCP(=O)(O)O)ccc12` [Compound 201, (((3-acetyl-1-(2-((2S,4R)-2-((6-bromopyridin-2-yl)carbamoyl)-4-fluoropyrrolidin-1-yl)-2-oxoethyl)-1H-indazol-6-yl)oxy)methyl)phosphonic acid]: the IC50 was less than 1000 nM.

In the case of `CC(=O)c1nn(CC(=O)N2[C@H](C(=O)Nc3cccc(Br)n3)C[C@@]3(C)C[C@@H]23)c2cc(OCP(=O)(O)O)ccc12` [Compound 250, (((3-acetyl-1-(2-((1R,3S,5R)-3-((6-bromopyridin-2-yl)carbamoyl)-5-methyl-2-azabicyclo[3.1.0]hexan-2-yl)-2-oxoethyl)-1H-indazol-6-yl)oxy)methyl)phosphonic acid], the IC50 was less than 1000 nM.

In the case of `CC(=O)c1cn(CC(=O)N2C[C@H](F)C[C@H]2C(=O)Nc2cccc(-c3ccccc3Cl)c2F)c2ccc(OCC[S+]([O-])CC(C)(CO)CO)cc12` (stereo partly drawn) [Compound 251, (2S,4R)-1-(2-(3-acetyl-5-(2-(3-hydroxy-2-(hydroxymethyl)-2-methyl-propylsulfinyl)ethoxy)-1H-indol-1-yl)acetyl)-N-(2′-chloro-2-fluorobiphenyl-3-yl)-4-fluoropyrrolidine-2-carboxamide], the IC50 was less than 1000 nM.

As a reminder, the IC50 is the concentration at which inhibition is half-maximal.

Values taken from patent US10385097B2, “Ether compounds for treatment of medical disorders” (Achillion Pharmaceuticals, Inc., priority 2015, dated 2019).
